Data as given in article PMC10650850, “Discovery, Structure–Activity Relationship and In Vitro Anticancer Activity of Small-Molecule Inhibitors of the Protein–Protein Interactions between AF9/ENL and AF4 or DOT1L” (Cancers, 2023).
Structures can show the parent of a compound that is named as a salt.

molecular target: T1, AF9-DOT1L interaction (Homo sapiens, UniProt P42568); assay: AlphaLisa assay, AF9-DOT1L interaction; assay type: binding; conditions: not given
T1 construct: human AF9 AHD domain (475–568); made in house; host or cells: E. coli BL21(DE3)
T1 sequence (P42568 475-568): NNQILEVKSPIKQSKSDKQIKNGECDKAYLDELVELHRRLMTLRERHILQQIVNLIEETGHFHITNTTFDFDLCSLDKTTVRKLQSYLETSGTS
Excerpt: An AlphaLisa assay we previously developed was used for compound screening for inhibitors of the AF9-DOT1L interaction. The PPI takes the DOT1L-peptide coated donor beads and AF9 AHD coated acceptor beads together. The donor beads are illuminated with a laser beam (680 nm) to generate singlet oxygen radicals, which activate the adjacent acceptor beads to produce luminescence at 615 nm. When a compound can disrupt such PPI and separate the donor and acceptor beads, the highly unstable radicals are rapidly quenched by water without generating luminescence.
The cDNA for the human AF9 AHD domain (475–568) and ENL AHD domain (489–559) was synthesized (by Genscript, Piscataway, NJ, USA) and inserted into the pMAL c5X expression plasmid. The DOT1L peptide (Biotin-AHX-[…]) and AF4 peptide (Biotin-AHX-[…]) for the Alpha assay were purchased from Genscript.
Alpha assays were developed in our previous publication, using a Perkin-Elmer AlphaLisa anti-MBP kit, which contains streptavidin donor beads and anti-MBP acceptor beads. Briefly, the assay was performed using a MBP-protein (5 nM), a biotinylated peptide (40 nM), and increasing concentrations of a compound in 25 µL buffer (PBS with 0.5% BSA, pH 7.5) in 384-well plates according to the manufacturer’s protocol and measured with a Tecan SPARK microplate reader. Data were imported into Prism (version 5.0), and IC50 values from 3 independent experiments with standard deviation were obtained by using a standard dose-response curve fitting.

Q: Which “Inhibitory activity against the AF9-DOT1L interaction (in words)” value does the source give for `Cl.O=C(NCC1CCNCC1)c1cc2ccc(-c3ccc(C(=O)N4CCC(N5CCCCC5)CC4)cc3)cc2s1` [Compound 33, 6-(4-(4-(Piperidin-1-yl)piperidin-1-carbonyl)phenyl)-N-(piperidin-4-ylmethyl)-benzo[b]thiophene-2-carboxamide hydrochloride] here?
A: inactive

same assay, conditions: MBP-protein 5 nM, biotinylated peptide 40 nM, 3 independent experiments with standard deviation, read-out: IC50 (μM) against the AF9-DOT1L interaction

Q: With `O=C(NCC1CCNCC1)c1cc2ccc(Nc3ccc(N4CCCCC4)cc3)cc2o1` [Compound 74, 6-((4-(Piperidin-1-yl)phenyl)amino)-N-(piperidin-4-ylmethyl)-benzofuran-2-carboxamide hydrochloride] as the compound, how does the IC50 read?
A: 4.6 ± 0.3 µM

Q: With `O=C(NCC1CCNCC1)c1cc2ccc(Oc3ccc(Oc4ccc(Cl)cc4)cc3)cc2s1` [Compound 36, 6-(4-(4-Chlorophenoxyl)phenoxyl)-N-(piperidin-4-ylmethyl)-benzo[b]thiophene-2-carboxamide hydrochloride] as the compound, how does the IC50 read?
A: ~5 µM

Q: With `O=C(NCC1CCNCC1)c1cc2ccc(-c3ccc(N4CCCCC4)cc3)cc2[nH]1` [Compound 1] as the compound, how does the IC50 read?
A: 3.3 ± 0.2 µM

Q: `O=C(NCC1CCNCC1)c1cc2ccc(-c3ccc(N4CCCC4)cc3)cc2[nH]1` [Compound 3, 6-(4-(1-Pyrrolinylphenyl)-N-(piperidin-4-ylmethyl)-1H-indole-2-carboxamide hydrochloride] was tested. Which IC50 did it give?
A: 2.8 ± 0.2 µM

same assay, conditions: compound at 5 μM, read-out: % Inhibition at 5 μM against the AF9-DOT1L interaction

Q: For `O=C(NCC1CCNCC1)c1cc2ccc(-c3ccc(C(=O)N4CCCCCC4)cc3)cc2o1` [Compound 65, 6-(4-((Azepane-1-yl)carbonyl)phenyl)-N-(piperidin-4-ylmethyl)-benzofuran-2-carboxamide hydrochloride], which inhibition at 5 µM is on record?
A: 0%

Q: With `O=C(NCC1CCNCC1)c1cc2ccc(-c3ccc(C(=O)N4CCCCC4)cc3)cc2s1` [Compound 29, 6-(4-(Piperidine-1-carbonyl)phenyl)-N-(piperidin-4-ylmethyl)-benzo[b]thiophene-2-carboxamide hydrochloride] as the compound, how does the inhibition at 5 µM read?
A: 8%

Q: `O=C(NCC1CCNCC1)c1cc2ccc(-c3ccc(CO)cc3)cc2s1` [Compound 39, 6-(4-(Hydroxylmethyl)phenyl)-N-(piperidin-4-ylmethyl)-benzo[b]thiophene-2-carboxamide hydrochloride] was tested. Which inhibition at 5 µM did it give?
A: 0%

Q: With `N#Cc1ccc(-c2ccc3cc(C(=O)NCC4CCNCC4)sc3c2)cc1F` [Compound 42, 6-(4-Cyano-3-fluorophenyl)-N-(piperidin-4-ylmethyl)-benzo[b]thiophene-2-carboxamide hydrochloride] as the compound, how does the inhibition at 5 µM read?
A: 26%

Q: Which inhibition at 5 µM does the source give for `N#CCc1ccc(-c2ccc3cc(C(=O)NCC4CCNCC4)sc3c2)cc1` [Compound 41, 6-(4-(Cyanomethyl)phenyl)-N-(piperidin-4-ylmethyl)-benzo[b]thiophene-2-carboxamide hydrochloride] here?
A: ~50%

Q: Which inhibition at 5 µM does the source give for `O=C(NCC1CCNCC1)c1cc2ccc(N3CCC(N4CCCC4)CC3)cc2s1` [Compound 32] here?
A: 20%

Q: How did the inhibition at 5 µM turn out when `O=C(NCC1CCNCC1)c1cc2ccc(-c3ccc(C(=O)N4CCCC4)cc3)cc2o1` [Compound 63, 6-(4-((Pyrrolidine-1-yl)carbonyl)phenyl)-N-(piperidin-4-ylmethyl)-benzofuran-2-carboxamide hydrochloride] was run?
A: 1%

Q: Which inhibition at 5 µM does the source give for `O=C(NCC1CCNCC1)c1cc2ccc(-c3ccc(F)cc3)cc2s1` [Compound 49, 6-(4-Fluorophenyl)-N-(piperidin-4-ylmethyl)-benzo[b]thiophene-2-carboxamide hydrochloride] here?
A: 21%

Q: Which inhibition at 5 µM does the source give for `O=C(NCC1CCNCC1)c1cc2cc(-c3ccc(N4CCOCC4)cc3)ccc2[nH]1` [Compound 17] here?
A: 52%

Q: How did the inhibition at 5 µM turn out when `CC(=O)c1ccc(-c2ccc3cc(C(=O)NCC4CCNCC4)[nH]c3c2)cc1` [Compound 8, 6-(4-Acetophenyl)-N-(piperidin-4-ylmethyl)-1H-indole-2-carboxamide hydrochloride] was run?
A: 37%

Q: `CCN(CC)c1ccc(-c2ccc3cc(C(=O)NCC4CCNCC4)oc3c2)cc1` [Compound 62, 6-(4-(Diethylamino)phenyl)-N-(piperidin-4-ylmethyl)-benzofuran-2-carboxamide hydrochloride] was tested. Which inhibition at 5 µM did it give?
A: 30%

Q: For `CC(C)(C)c1ccc(-c2ccc3sc(C(=O)NCC4CCNCC4)cc3c2)cc1` [Compound 54, 5-(4-(Tert-butyl)phenyl)-N-(piperidin-4-ylmethyl)-benzo[b]thiophene-2-carboxamide hydrochloride], which inhibition at 5 µM is on record?
A: 33%

Q: How did the inhibition at 5 µM turn out when `CCN(CC)c1ccc(-c2ccc3cc(C(=O)NCC4CCNCC4)sc3c2)cc1` [Compound 27, 6-(4-(Diethylamino)phenyl)-N-(piperidin-4-ylmethyl)-benzo[b]thiophene-2-carboxamide hydrochloride] was run?
A: 25%

Q: `O=C(NCC1CCNCC1)c1cc2cc(Nc3ccc(OC(F)(F)F)cc3)ccc2s1` [Compound 56, 5-((4-(Trifluoromethoxyl)phenyl)amino)-N-(piperidin-4-ylmethyl)-benzo[b]thiophene-2-carboxamide hydrochloride] was tested. Which inhibition at 5 µM did it give?
A: 24%

Q: How did the inhibition at 5 µM turn out when `CC(=O)Nc1ccc(-c2ccc3cc(C(=O)NCC4CCNCC4)sc3c2)cc1` [Compound 38, 6-(4-(Acetamido)phenyl)-N-(piperidin-4-ylmethyl)-benzo[b]thiophene-2-carboxamide hydrochloride] was run?
A: 0%

Q: How did the inhibition at 5 µM turn out when `N#Cc1ccc(-c2ccc3sc(C(=O)NCC4CCNCC4)cc3c2)cc1` [Compound 53, 5-(4-Cyanophenyl)-N-(piperidin-4-ylmethyl)-benzo[b]thiophene-2-carboxamide hydrochloride] was run?
A: 23%

Q: Which inhibition at 5 µM does the source give for `CS(=O)(=O)c1ccc(-c2ccc3cc(C(=O)NCC4CCNCC4)oc3c2)cc1` [Compound 70, 6-(4-(Methylsulfonyl)phenyl)-N-(piperidin-4-ylmethyl)-benzofuran-2-carboxamide hydrochloride] here?
A: 19%

Q: Which inhibition at 5 µM does the source give for `O=C(NCC1CCNCC1)c1cc2ccc(-c3ccc(-c4ccsc4)cc3)cc2[nH]1` [Compound 6] here?
A: 14%

Q: With `Cl.O=C(NCC1CCNCC1)c1cc2ccc(-c3ccc(C(=O)N4CCC(N5CCCCC5)CC4)cc3)cc2s1` [Compound 33, 6-(4-(4-(Piperidin-1-yl)piperidin-1-carbonyl)phenyl)-N-(piperidin-4-ylmethyl)-benzo[b]thiophene-2-carboxamide hydrochloride] as the compound, how does the inhibition at 5 µM read?
A: 0%

Q: For `N#Cc1ccc(-c2ccc3cc(C(=O)NCC4CCNCC4)oc3c2)cc1` [Compound 73, 6-(4-Cyanophenyl)-N-(piperidin-4-ylmethyl)-benzofuran-2-carboxamide hydrochloride], which inhibition at 5 µM is on record?
A: 15%

Q: Which inhibition at 5 µM does the source give for `O=C(NCC1CCNCC1)c1cc2cc(-c3ccc(C(=O)N4CCCCC4)cc3)ccc2s1` [Compound 51, 5-(4-(Piperidine-1-carbonyl)phenyl)-N-(piperidin-4-ylmethyl)-benzo[b]thiophene-2-carboxamide hydrochloride] here?
A: 31%

Q: With `O=C(NCC1CCNCC1)c1cc2ccc(-c3ccc(OC(F)(F)F)cc3)cc2s1` [Compound 44, 6-(4-Trifluoromethoxylphenyl)-N-(piperidin-4-ylmethyl)-benzo[b]thiophene-2-carboxamide hydrochloride] as the compound, how does the inhibition at 5 µM read?
A: 14%

Q: `O=C(NCC1CCNCC1)c1cc2ccc(-c3ccc(N4CCOCC4)cc3)cc2o1` [Compound 58, 6-(4-Morpholinophenyl)-N-(piperidin-4-ylmethyl)-benzofuran-2-carboxamide hydrochloride] was tested. Which inhibition at 5 µM did it give?
A: 40%

Q: Which inhibition at 5 µM does the source give for `O=C(NCC1CCNCC1)c1cc2ccc(Oc3ccc(Oc4ccc(Cl)cc4)cc3)cc2s1` [Compound 36, 6-(4-(4-Chlorophenoxyl)phenoxyl)-N-(piperidin-4-ylmethyl)-benzo[b]thiophene-2-carboxamide hydrochloride] here?
A: 50%

Q: Which inhibition at 5 µM does the source give for `CC(C)(C)c1ccc(-c2ccc3cc(C(=O)NCC4CCNCC4)sc3c2)cc1` [Compound 40, 6-(4-(Tert-butyl)phenyl)-N-(piperidin-4-ylmethyl)-benzo[b]thiophene-2-carboxamide hydrochloride] here?
A: 19%

Q: `O=C(NCC1CCNCC1)c1cc2ccc(-c3ccc(-c4ccccc4)cc3)cc2o1` [Compound 67, 6-((1,1′-Biphenyl)-4-yl)-N-(piperidin-4-ylmethyl)-benzofuran-2-carboxamide hydrochloride] was tested. Which inhibition at 5 µM did it give?
A: 0%

Q: With `CC(C)(C)c1ccc(-c2ccc3[nH]c(C(=O)NCC4CCNCC4)cc3c2)cc1` [Compound 19] as the compound, how does the inhibition at 5 µM read?
A: 13%

Q: With `O=C(NCC1CCNCC1)c1c[nH]c2ccc(-c3ccc(N4CCCCC4)cc3)cc12` [Compound 23, 5-(4-(Piperidin-1-yl)phenyl)-N-(piperidin-4-ylmethyl)-1H-indole-3-carboxamide hydrochloride] as the compound, how does the inhibition at 5 µM read?
A: 43%

Q: Which inhibition at 5 µM does the source give for `CS(=O)(=O)c1ccc(-c2ccc3cc(C(=O)NCC4CCNCC4)sc3c2)cc1` [Compound 43, 6-(4-(Methylsulfonyl)phenyl)-N-(piperidin-4-ylmethyl)-benzo[b]thiophene-2-carboxamide hydrochloride] here?
A: 49%

Q: `N#Cc1ccc(-c2ccc3[nH]c(C(=O)NCC4CCNCC4)cc3c2)cc1F` [Compound 20, 5-(3-Fluoro-4-cyanophenyl)-N-(piperidin-4-ylmethyl)-1H-indole-2-carboxamide hydrochloride] was tested. Which inhibition at 5 µM did it give?
A: 8%

Q: `O=C(NCC1CCNCC1)c1cc2ccc(-c3ccc(C(=O)N4CCCC4)cc3)cc2s1` [Compound 30] was tested. Which inhibition at 5 µM did it give?
A: 0%

Q: Which inhibition at 5 µM does the source give for `O=C(NCC1CCNCC1)c1cc2ccc(-c3ccc(N4CCNCC4)cc3)cc2[nH]1` [Compound 5] here?
A: 40%

Q: Which inhibition at 5 µM does the source give for `Cc1ccc(-c2ccc3cc(C(=O)NCC4CCNCC4)sc3c2)cc1` [Compound 47, 6-(4-Methylphenyl)-N-(piperidin-4-ylmethyl)-benzo[b]thiophene-2-carboxamide hydrochloride] here?
A: 47%
